The structures appear in SMILES notation. Structures can show the parent of a compound that is named as a salt.

In the assay the target is T1, rhVAP-1 (Homo sapiens, UniProt Q16853).
T1 construct: purchased PeproTech
T1 sequence (Q16853 27-763 limits assumed): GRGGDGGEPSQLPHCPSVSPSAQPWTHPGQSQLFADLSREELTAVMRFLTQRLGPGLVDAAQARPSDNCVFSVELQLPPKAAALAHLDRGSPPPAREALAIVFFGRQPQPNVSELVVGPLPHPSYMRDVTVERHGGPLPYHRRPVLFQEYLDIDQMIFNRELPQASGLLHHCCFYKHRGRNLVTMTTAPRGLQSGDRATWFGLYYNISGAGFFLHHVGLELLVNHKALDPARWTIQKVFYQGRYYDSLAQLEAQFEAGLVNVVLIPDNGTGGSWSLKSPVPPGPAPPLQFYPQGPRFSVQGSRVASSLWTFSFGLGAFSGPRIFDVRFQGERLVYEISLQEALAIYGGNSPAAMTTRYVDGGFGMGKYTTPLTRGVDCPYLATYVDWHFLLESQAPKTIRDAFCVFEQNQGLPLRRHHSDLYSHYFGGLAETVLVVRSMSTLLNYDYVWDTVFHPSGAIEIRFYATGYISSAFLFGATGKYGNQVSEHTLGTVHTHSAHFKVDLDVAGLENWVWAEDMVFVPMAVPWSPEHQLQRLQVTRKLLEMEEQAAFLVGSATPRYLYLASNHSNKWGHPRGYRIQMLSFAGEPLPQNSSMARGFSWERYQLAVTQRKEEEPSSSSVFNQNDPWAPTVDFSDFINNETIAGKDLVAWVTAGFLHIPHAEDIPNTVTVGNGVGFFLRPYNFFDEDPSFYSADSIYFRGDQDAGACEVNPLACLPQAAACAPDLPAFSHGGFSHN
The experiment in a line: Inhibitory activity against rhVAP-1 enzyme (Biological Example 1). In kind it is biochemical. The note with it: Table 1; benzylamine substrate, Amplex Red/HRP. As for the experimental part: 1. Inhibitory Activity of Compounds Against rhVAP-1 Enzyme
(1) Instrument, Consumable and Reagent
Multifunctional microplate reader (MD, FlexStation3), black unclear-bottom 96-well plate (Corning), and rhVAP-1 (PeproTech)
(2) Preparation of Concentration Gradient Compound Solutions
An appropriate amount of the compound to be tested was taken, dissolved in DMSO to 10 mM and then stored. Before the study, an appropriate amount of mother liquor of the 10 mM compound to be tested was diluted with DMSO, so that 1 mM solution was obtained. The solution was then gradiently diluted 3-fold with DMSO, 10 concentration gradients in total. PBS was then used to carry out 100-fold dilution, so that compound solutions of 10× series of concentrations were prepared.
(3) Preparation of Enzyme Solutions
An appropriate amount of protein diluent was added into rhVAP-1 powder, obtaining 1 mg/mL of mother liquor for storage. Before the study, PBS was used to carry out dilution to obtain enzyme solutions of 4× concentrations.
(4) Preparation of Substrate Mixtures of 2× Concentrations
An appropriate amount of benzylamine was weighed and dissolved with PBS to obtain 200 mM of benzylamine solution. The benzylamine solution was added with 2 mM of Amplex Red mother liquor and 500 U/mL of HRP mother liquor and diluted with PBS to obtain substrate mixtures of 2× concentrations.
10 μL compound solutions of different concentrations, 25 μL rhVAP-1 enzyme solutions of 4× concentrations and 15 μL of PBS were first added into a 96-well plate, shaken to be mixed uniformly and then incubated at 37° C. for 30 min. 50 μL substrate mixtures of 2× concentrations were then added into each well, and the microplate reader was immediately used to detect fluorescence intensity of each well with 565 nm exciting light and 590 nm emission light for 5 min each time, 25 min in total. […]
V: fluorescence change rate; Ft: fluorescence reading at time point t; F0: initial fluorescence reading; Time: duration t; Vcmpd: fluorescence change rate of tested compound; Vmax: Max hole fluorescence change rate. […]

Broadly, the IC50 is the midpoint of a concentration-inhibition curve. Low readings indicate greater potency in that assay, high ones weaker potency in that assay. `NC/C(=C\F)Cn1cc2c(n1)CCN(C1CC1)C2=O` [Compound A1, (E)-2-(2-(aminomethyl)-3-fluoroallyl)-5-cyclopropyl-2,5,6,7-tetrahydro-4H-pyrazolo[4,3-c]pyridin-4-one] yielded an IC50 of 38 nM.

In turn, `NC/C(=C\F)Cn1ncc2c1CCN(C1CC1)C2=O` [Compound A2 hydrochloride, (E)-1-(2-(aminomethyl)-3-fluoroallyl)-5-cyclopropyl-1,5,6,7-tetrahydro-4H-pyrazolo[4,3-c]pyridin-4-one] gave an IC50 of 73 nM.

For the origin of these results see US12371432B2, “Haloallylamine compounds and application thereof” (TransThera Sciences (Nanjing), Inc., priority 2019, dated 2025).
